Experimental data as given in patent US20230035403A1, “Method For Determining Responsiveness To Prostate Cancer Treatment” (Janssen Biotech, Inc., priority 2020, published 2023).

Tested on: CD8+ T cells in PBMCs from patients with metastatic castrate-resistant prostate cancer
Experiment: Patient PBMC restimulation assay (in vitro immunogenicity of neoantigens)
Assay type: cell-based, human
Conditions: for Immunogenic: Patient PBMC restimulation, TNFα and IFNγ production by CD8+ T cells; for Maximum fold change over negative control: TNFα+IFNγ+CD8+ T cells, highest fold change across the PBMC donors evaluated, 9 mer peptide; for Maximum frequency of TNFα^+IFNγ^+CD8^+ T cells (Percent): greatest frequency among all tested PBMC donors, negative control 0.011-0.8 depending on patient
Procedure, shortened: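 PBMCs from metastatic castrate-resistant prostate cancer patients were stimulated with 9-mer neoantigen peptides (5 μg/mL final) plus IL-15 for 13 days, with IL-2 added during culture, and restimulated on day 12. Live CD3+CD8+ TNFα+/IFNγ+ frequency was measured by flow cytometry. A response was positive at ≥2-fold over the DMSO control.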

## SLYHREKQLIAMDSAI [Neoantigen P22]
  Immunogenic: Yes
  Maximum fold change over negative control: 5.00
  Maximum frequency of TNFα^+IFNγ^+CD8^+ T cells (Percent): 0.120%

## YEAGMTLGEKFRVGNCKHLKMTRP [Neoantigen P82]
  Immunogenic: Yes
  Maximum fold change over negative control: 3.46
  Maximum frequency of TNFα^+IFNγ^+CD8^+ T cells (Percent): 0.970%

## YEAGMTLGGKILFFLFLLLPLSPFSLIF [Neoantigen P87]
  Immunogenic: Yes
  Maximum fold change over negative control: 3.24
  Maximum frequency of TNFα^+IFNγ^+CD8^+ T cells (Percent): 0.120%
